Measurements published in patent publication US11147272B2, “Pyridone compounds and agricultural and horticultural fungicides comprising the same as active ingredients” (MITSUI CHEMICALS AGRO, INC., priority 2017, dated 2021).

Tests used:
Puccinia recondita = assay: Test Example E: Brown rust on wheat; assay type: in vivo; conditions: Brown rust on wheat; class of control value
[1] = system: Colletotrichum orbiculare; assay: Test Example H: Anthracnose on cucumber; conditions: Anthracnose on cucumber (Sagami Hanjiro); 250 ppm spray, 2.5 ml/pot; assessed 6 to 10 days after inoculation
[2] = system: Blumeria graminis f. sp. hordei; assay: Test Example D: Powdery mildew on barley; conditions: Powdery mildew on barley; class of control value
Description: Seeds of a test plant (barley variety: Akashinriki) were planted and cultivated until the first leaves appeared. In the test, the inventive compounds were dissolved into dimethyl sulfoxide-methanol mixture solution (volume ratio: 9/1), and the resultant solutions were diluted with well water to a concentration of 250 ppm to obtain the drug solutions. The drug solutions were sprayed to the test plant (2.5 ml/pot). After the drug solutions dried, conidia of Blumeria graminis f. sp. hordei were inoculated to the plant by shaking off. The degrees of disease development were investigated 6 to 10 days after the inoculation, and the effectiveness of the drug solutions was evaluated.
In Test Examples described above, the degrees of disease development were evaluated in increments of 0.05 from 0 (as no incidence of disease) to 3 (as the degree of disease development in an untreated plant group). Further, control values were calculated using the following equation based on the degree of disease development.
n=Degree of disease development in each treated group

Magnaporthe grisea = assay: whole plant or invertebrate; assay type: in vivo; conditions: Blast on rice; class of control value
Plasmopara viticola = assay: Test Example G: Downy mildew on vine; conditions: Downy mildew on vine (Neomuscat); 250 ppm spray, 2.5 ml/pot; assessed 7 to 10 days after inoculation
Alternaia brassicicola = assay: Test Example C: Alternaria sooty spot on cabbage; assay type: in vivo; conditions: Alternaria sooty spot on cabbage; class of control value
Description: Seeds of a test plant (cabbage variety: Shikidori) were planted and cultivated until the cotyledons extended.
<Control Value> Control value=100{1−(n/3)}

Phytophthora infestans = assay: whole plant or invertebrate; assay type: in vivo; conditions: Late blight on tomato; class of control value
Botrytis cinerea = assay: Test Example B: Gray mold on tomato; conditions: Gray mold on tomato; class of control value

SMILES | Test E control value class (Puccinia recondita) | Test H control value class [1] | Test D control value class [2] | Test A control value class (Magnaporthe grisea) | Test G control value class (Plasmopara viticola) | Test C control value class (Alternaia brassicicola) | Test F control value class (Phytophthora infestans) | Test B control value class (Botrytis cinerea)
CCC(C)c1cc(Br)c(=O)n(CC)c1-c1c(F)cc(F)cc1F (stereo not shown) [compound 32] | H (more than 50% control value) | H (more than 50% control value) | H (more than 50% control value) | H (more than 50% control value) | L (50% or less control value) | H (more than 50% control value) | L (50% or less control value) | H (more than 50% control value)
CCC(C)c1cc(Cl)c(=O)n(CC)c1-c1c(F)cc(F)cc1F (stereo not shown) [compound 33] | H (more than 50% control value) | H (more than 50% control value) | H (more than 50% control value) | H (more than 50% control value) | L (50% or less control value) | H (more than 50% control value) | L (50% or less control value) | H (more than 50% control value)
CCC(C)c1ccc(=O)n(CC)c1-c1c(F)cc(OC)cc1F (stereo not shown) [compound 34] | H (more than 50% control value) | H (more than 50% control value) | H (more than 50% control value) | H (more than 50% control value) | H (more than 50% control value) | H (more than 50% control value) | L (50% or less control value) | H (more than 50% control value)
CCC(C)c1cc(Cl)c(=O)n(CC)c1-c1c(F)cc(OC)cc1F (stereo not shown) [compound 35] | H (more than 50% control value) | H (more than 50% control value) | H (more than 50% control value) | H (more than 50% control value) | L (50% or less control value) | H (more than 50% control value) | L (50% or less control value) | H (more than 50% control value)
CCC(C)C1=C(c2c(F)cc(OC)cc2F)N(CC)C(=O)C(Br)C1 (stereo not shown) [compound 36] | H (more than 50% control value) | H (more than 50% control value) | H (more than 50% control value) | H (more than 50% control value) | H (more than 50% control value) | H (more than 50% control value) | L (50% or less control value) | H (more than 50% control value)
CCn1c(-c2c(F)cc(F)cc2F)c(CC(C)C)ccc1=O [compound 37] | L (50% or less control value) | L (50% or less control value) | L (50% or less control value) | H (more than 50% control value) | L (50% or less control value) | L (50% or less control value) | L (50% or less control value) | L (50% or less control value)
CCn1c(-c2c(F)cc(F)cc2F)c(CC(C)C)ccc1=O [compound 38] | H (more than 50% control value) | L (50% or less control value) | H (more than 50% control value) | H (more than 50% control value) | L (50% or less control value) | L (50% or less control value) | L (50% or less control value) | H (more than 50% control value)
CCn1c(-c2c(F)cc(OC)cc2F)c(CC(C)C)ccc1=O [compound 39] | H (more than 50% control value) | H (more than 50% control value) | H (more than 50% control value) | H (more than 50% control value) | H (more than 50% control value) | H (more than 50% control value) | L (50% or less control value) | H (more than 50% control value)
CCn1c(-c2c(F)cc(F)cc2F)c(CC(C)C)cc(Br)c1=O [compound 40] | H (more than 50% control value) | H (more than 50% control value) | H (more than 50% control value) | H (more than 50% control value) | L (50% or less control value) | H (more than 50% control value) | L (50% or less control value) | H (more than 50% control value)
CCn1c(-c2c(F)cc(F)cc2F)c(CC(C)C)cc(Cl)c1=O [compound 41] | H (more than 50% control value) | H (more than 50% control value) | H (more than 50% control value) | H (more than 50% control value) | H (more than 50% control value) | H (more than 50% control value) | L (50% or less control value) | H (more than 50% control value)
CCn1c(-c2c(F)cc(OC)cc2F)c(CC(C)C)cc(Cl)c1=O [compound 42] | H (more than 50% control value) | H (more than 50% control value) | H (more than 50% control value) | H (more than 50% control value) | H (more than 50% control value) | H (more than 50% control value) | L (50% or less control value) | H (more than 50% control value)
CCn1c(-c2c(F)cc(OC)cc2F)c(CC(C)C)cc(Br)c1=O [compound 43] | H (more than 50% control value) | H (more than 50% control value) | H (more than 50% control value) | H (more than 50% control value) | H (more than 50% control value) | H (more than 50% control value) | L (50% or less control value) | H (more than 50% control value)
CCn1c(-c2c(F)cccc2F)c(CO)cc(Cl)c1=O [compound 44] | H (more than 50% control value) | L (50% or less control value) | L (50% or less control value) | L (50% or less control value) | L (50% or less control value) | H (more than 50% control value) | L (50% or less control value) | H (more than 50% control value)
CCn1c(-c2c(F)cccc2F)c(COC)cc(Cl)c1=O [compound 45] | H (more than 50% control value) | L (50% or less control value) | H (more than 50% control value) | H (more than 50% control value) | L (50% or less control value) | H (more than 50% control value) | L (50% or less control value) | H (more than 50% control value)
CCC(O)c1cc(Cl)c(=O)n(CC)c1-c1c(F)cc(F)cc1F (stereo not shown) [compound 46] | H (more than 50% control value) | H (more than 50% control value) | H (more than 50% control value) | H (more than 50% control value) | L (50% or less control value) | H (more than 50% control value) | L (50% or less control value) | H (more than 50% control value)
CCC(OC)c1cc(Cl)c(=O)n(CC)c1-c1c(F)cc(F)cc1F (stereo not shown) [compound 47] | H (more than 50% control value) | H (more than 50% control value) | H (more than 50% control value) | H (more than 50% control value) | H (more than 50% control value) | H (more than 50% control value) | L (50% or less control value) | H (more than 50% control value)
CCC(OC)c1cc(Cl)c(=O)n(CC)c1-c1c(F)cc(OC)cc1F (stereo not shown) [compound 48] | H (more than 50% control value) | H (more than 50% control value) | H (more than 50% control value) | H (more than 50% control value) | H (more than 50% control value) | H (more than 50% control value) | L (50% or less control value) | H (more than 50% control value)
